In patent publication US7897593B2, “HIV integrase inhibitors” (priority 2006, dated 2011) one finds IC50 and EC50 data, which are given here for 30 compounds.

One experiment concerns the target T1, HIV-integrase (Human immunodeficiency virus type 1 group M subtype B, UniProt P12497).
T1 construct: Recombinant integrase (0.26 ng) was incubated with the beads
In words: HIV-Integrase Inhibition Activity (SPA strand transfer assay). Conditions: recombinant integrase, SPA beads, P33 labeled target DNA. Format: biochemical. Here is the method:
HIV-Integrase InhibitionActivity. To evaluate in-vitro activity against HIV-integrase, 5 pmole of biotin labeled substrate DNA was bound to 100 μg of Streptavidin coated PVT SPA beads (Amersham Pharmacia Biotech). Recombinant integrase (0.26 ng) was incubated with the beads for 90 min at 37° C. Unbound enzyme was removed by washing the complex followed by addition of inhibitors and 0.1 fmol of P33 labeled target DNA. The reaction was stopped by adding EDTA to a final concentration of 10 mM. Samples were counted in TopCountNXT (Packard) and the CPM was used as a measure of integration. The reaction condition was as described in A. Engelman and R. Craigie, J. Virol 69, 5908-5911 (1995). The sequences of substrate and target DNA were described in Nucleic Acid Research 22, 1121-1122 (1994). Activity equal to A refers to a compound having IC50=0.001 to 0.01 μM B=0.01-0.1, and C≧0.1 μM respectively.

Experiment [1] deals with recombinant NL-Rluc virus. The experiment is described as follows: Inhibition of HIV replication. Conditions: Human immunodeficiency virus 1, read-out: Antiviral Activity, NL-RLuc virus; three serum conditions described, the one tabulated is not stated. Format: cell-based.

Structures are written as SMILES.

For the compound `Cc1ccc(F)cc1S(=O)(=O)N1CCC2(CC1)OCCn1c2nc(C(=O)NCc2ccc(F)cc2)c(O)c1=O` [Example 18], the IC50 on HIV-integrase is 1 to 10 nM. Besides, in experiment [1], the EC50 lay within 1 to 10 nM.

For the compound `O=C(NCc1ccc(F)cc1)c1nc2n(c(=O)c1O)CCOC21CCN(C(=O)OCc2ccccc2)C1` (stereo not drawn) [Example 36, Benzyl 2-(4-fluorobenzylcarbamoyl)-3-hydroxy-4-oxo-6,7-dihydro-4H-spiro[pyrimido[2,1-c][1,4]oxazine-9,3′-pyrrolidine]-1′-carboxylate], on HIV-integrase, the IC50 is 1 to 10 nM. For the same compound, the EC50 in experiment [1] was 1 to 10 nM.

As for `CN(C)C(=O)N1CCC2(CC1)OCCn1c2nc(C(=O)NCc2ccc(F)cc2)c(O)c1=O` [Example 6], at HIV-integrase, the half-inhibitory concentration (IC50) fell in the range of 1 to 10 nM. In addition, the EC50 in experiment [1] was in the range of 1 to 10 nM.

On to `Cc1ncnn1-c1cc(F)ccc1CNC(=O)c1nc2n(c(=O)c1O)CCOC21CCN(C(=O)OC(C)C)C1` (stereo not drawn) [Example 43, Isopropyl 2-(4-fluoro-2-(5-methyl-1H-1,2,4-triazol-1-yl)benzylcarbamoyl)-3-hydroxy-4-oxo-6,7-dihydro-4H-spiro[pyrimido[2,1-c][1,4]oxazine-9,3′-pyrrolidine]-1′-carboxylate], for which, on HIV-integrase, the IC50 was 10 to 100 nM. Moreover, in experiment [1], the EC50 fell in the range of 10 to 100 nM.

With `Cc1ncnn1-c1cc(F)ccc1CNC(=O)c1nc2n(c(=O)c1O)CCOC21CCN(C(=O)C(=O)N(C)C)C1` (stereo not drawn) [Example 41, 1′-(2-(Dimethylamino)-2-oxoacetyl)-N-(4-fluoro-2-(5-methyl-1H-1,2,4-triazol-1-yl)benzyl)-3-hydroxy-4-oxo-6,7-dihydro-4H-spiro[pyrimido[2,1-c][1,4]oxazine-9,3′-pyrrolidine]-2-carboxamide], the IC50 on HIV-integrase was 10 to 100 nM. For the same compound, the EC50 in experiment [1] is over 100 nM.

Consider `CS(=O)(=O)N1CCC2(C1)OCCn1c2nc(C(=O)NCc2ccc(F)cc2)c(O)c1=O` (stereo not drawn) [Example 38, N-(4-Fluorobenzyl)-3-hydroxy-1′-(methylsulfonyl)-4-oxo-6,7-dihydro-4H-spiro[pyrimido[2,1-c][1,4]oxazine-9,3′-pyrrolidine]-2-carboxamide], for which the IC50 at HIV-integrase was in the range of 1 to 10 nM. Further, the EC50 in experiment [1] lay within 10 to 100 nM.

In the case of `Cc1ccc(S(=O)(=O)N2CCC3(CC2)OCCn2c3nc(C(=O)NCc3ccc(F)cc3)c(O)c2=O)cc1` [Example 12], on HIV-integrase, the IC50 is 10 to 100 nM. Moreover, in experiment [1], the EC50 was 1 to 10 nM.

Take `CS(=O)(=O)N1CCC2(CC1)OCCn1c2nc(C(=O)NCc2ccc(F)cc2)c(O)c1=O` [Example 8]: on HIV-integrase, the IC50 is 1 to 10 nM. Besides, the EC50 in experiment [1] lay within 1 to 10 nM.

For `CN(C)S(=O)(=O)N1CCC2(CC1)OCCn1c2nc(C(=O)NCc2ccc(F)cc2-n2cncn2)c(O)c1=O` [Example 1, 1-(N,N-Dimethylsulfamoyl)-N-(4-fluoro-2-(1H-1,2,4-triazol-1-yl)benzyl)-3′-hydroxy-4′-oxo-6′,7′-dihydro-4′H-spiro[piperidine-4,9′-pyrimido[2,1-c][1,4]oxazine]-2′-carboxamide], the IC50 on HIV-integrase is 1 to 10 nM. Further, the EC50 in experiment [1] was 1 to 10 nM.

For `COC(=O)N1CCC2(CC1)OCCn1c2nc(C(=O)NCc2ccc(F)cc2)c(O)c1=O` [Example 4], the IC50 at HIV-integrase was 1 to 10 nM. Moreover, in experiment [1], the EC50 is 1 to 10 nM.

In the case of `Cc1ncn(-c2cc(F)ccc2CNC(=O)c2nc3n(c(=O)c2O)CCOC32CCN(C(=O)C(=O)N(C)C)CC2)n1` [Example 32, 1-(2-(Dimethylamino)-2-oxoacetyl)-N-(4-fluoro-2-(3-methyl-1H-1,2,4-triazol-1-yl)benzyl)-3′-hydroxy-4′-oxo-6′,7′-dihydro-4′H-spiro[piperidine-4,9′-pyrimido[2,1-c][1,4]oxazine]-2′-carboxamide], the IC50 at HIV-integrase was 10 to 100 nM. Also, the EC50 in experiment [1] was over 100 nM.

Turning to `Cc1ccc(F)cc1S(=O)(=O)N1CCC2(CC1)OCCn1c2nc(C(=O)NCc2ccc(F)cc2-n2cncn2)c(O)c1=O` [Example 19], the IC50 at HIV-integrase was 1 to 10 nM. In experiment [1], the EC50 was 1 to 10 nM.

As for `O=C(O)C(=O)N1CCC2(CC1)OCCn1c2nc(C(=O)NCc2ccc(F)cc2)c(O)c1=O` [Example 29, 2-(2′-(4-Fluorobenzylcarbamoyl)-3′-hydroxy-4′-oxo-6′,7′-dihydro-4′H-spiro[piperidine-4,9′-pyrimido[2,1-c][1,4]oxazine]-1-yl)-2-oxoacetic acid], the IC50 at HIV-integrase is 1 to 10 nM. Moreover, the EC50 in experiment [1] was over 100 nM.

Consider `COC(=O)C(=O)N1CCC2(CC1)OCCn1c2nc(C(=O)NCc2ccc(F)cc2-n2ncnc2C)c(O)c1=O` [Example 26, Methyl 2-(2′-(4-fluoro-2-(5-methyl-1H-1,2,4-triazol-1-yl)benzylcarbamoyl)-3′-hydroxy-4′-oxo-6′,7′-dihydro-4′H-spiro[piperidine-4,9′-pyrimido[2,1-c][1,4]oxazine]-1-yl)-2-oxoacetate], for which the IC50 on HIV-integrase is 10 to 100 nM. The EC50 in experiment [1] was 10 to 100 nM.

On to `COC(=O)N1CCC2(CC1)OCCn1c2nc(C(=O)NCc2ccc(F)cc2-n2cncn2)c(O)c1=O` [Example 3], for which the IC50 on HIV-integrase was in the range of 1 to 10 nM. The EC50 in experiment [1] was in the range of 1 to 10 nM.

For the compound `CN(C)C(=O)C(=O)N1CCC2(C1)OCCn1c2nc(C(=O)NCc2ccc(F)cc2)c(O)c1=O` (stereo not drawn) [Example 40, 1′-(2-(Dimethylamino)-2-oxoacetyl)-N-(4-fluorobenzyl)-3-hydroxy-4-oxo-6,7-dihydro-4H-spiro[pyrimido[2,1-c][1,4]oxazine-9, 3′-pyrrolidine]-2-carboxamide], the IC50 at HIV-integrase lay within 1 to 10 nM. The EC50 in experiment [1] fell in the range of 10 to 100 nM.

As for `CN(C)S(=O)(=O)N1CCC2(CC1)OCCn1c2nc(C(=O)NCc2ccc(F)cc2)c(O)c1=O` [Example 2], the IC50 on HIV-integrase lay within 1 to 10 nM. In addition, the EC50 in experiment [1] lay within 1 to 10 nM.

As to `CC(C)OC(=O)N1CCC2(C1)OCCn1c2nc(C(=O)NCc2ccc(F)cc2)c(O)c1=O` (stereo not drawn) [Example 42, Isopropyl 2-(4-fluorobenzylcarbamoyl)-3-hydroxy-4-oxo-6,7-dihydro-4H-spiro[pyrimido[2,1-c][1,4]oxazine-9,3′-pyrrolidine]-1′-carboxylate], the IC50 on HIV-integrase lay in the range of 1 to 10 nM. In experiment [1], the EC50 is 1 to 10 nM.

`CN(C)C(=O)C(=O)N1CCC2(CC1)OCCn1c2nc(C(=O)NCc2ccc(F)cc2)c(O)c1=O` [Example 30, 1-(2-(Dimethylamino)-2-oxoacetyl)-N-(4-fluorobenzyl)-3′-hydroxy-4′-oxo-6′,7′-dihydro-4′H-spiro[piperidine-4,9′-pyrimido[2,1-c][1,4]oxazine]-2′-carboxamide]: the IC50 at HIV-integrase was in the range of 1 to 10 nM. Besides, the EC50 in experiment [1] lay in the range of 10 to 100 nM.

Consider `Cc1ccc(S(=O)(=O)N2CCC3(CC2)OCCn2c3nc(C(=O)NCc3ccc(F)cc3-n3cncn3)c(O)c2=O)cc1` [Example 11], for which, at HIV-integrase, the IC50 lay in the range of 1 to 10 nM. Moreover, in experiment [1], the EC50 fell in the range of 1 to 10 nM.

As to `Cc1ncnn1-c1cc(F)ccc1CNC(=O)c1nc2n(c(=O)c1O)CCOC21CCN(C(=O)OCc2ccccc2)CC1` [Example 23], the IC50 on HIV-integrase was 10 to 100 nM. Besides, the EC50 in experiment [1] fell in the range of 1 to 10 nM.

For the compound `Cc1ccc(S(=O)(=O)N2CCC3(CC2)OCCn2c3nc(C(=O)NCc3ccc(F)cc3-n3cnc(C)n3)c(O)c2=O)cc1` [Example 15], at HIV-integrase, the IC50 was 10 to 100 nM. Further, the EC50 in experiment [1] fell in the range of 1 to 10 nM.

Regarding `Cc1ncnn1-c1cc(F)ccc1CNC(=O)c1nc2n(c(=O)c1O)CCOC21CCN(S(C)(=O)=O)C1` (stereo not drawn) [Example 39, N-(4-Fluoro-2-(5-methyl-1H-1,2,4-triazol-1-yl)benzyl)-3-hydroxy-1′-(methylsulfonyl)-4-oxo-6,7-dihydro-4H-spiro[pyrimido[2,1-c][1,4]oxazine-9,3′-pyrrolidine]-2-carboxamide], at HIV-integrase, the IC50 is 10 to 100 nM. Also, the EC50 in experiment [1] was in the range of 10 to 100 nM.

Regarding `Cc1ccc(S(=O)(=O)N2CCC3(CC2)OCCn2c3nc(C(=O)NCc3ccc(F)cc3S(=O)(=O)N3CCOCC3)c(O)c2=O)cc1` [Example 14], at HIV-integrase, the IC50 lay within 10 to 100 nM. Also, in experiment [1], the EC50 fell in the range of 1 to 10 nM.

As to `CNC(=O)c1nc2n(c(=O)c1O)CCOC21CCN(S(=O)(=O)c2cc(F)ccc2C)CC1` [Example 25, 1-(5-Fluoro-2-methylphenylsulfonyl)-3′-hydroxy-N-methyl-4′-oxo-6′,7′-dihydro-4′H-spiro[piperidine-4,9′-pyrimido[2,1-c][1,4]oxazine]-2′-carboxamide], the IC50 at HIV-integrase was at least 100 nM. Besides, the EC50 in experiment [1] is over 100 nM.

For the compound `O=C(NCc1ccc(F)cc1S(=O)(=O)N1CCOCC1)c1nc2n(c(=O)c1O)CCCOC21CCN(C(=O)OCc2ccccc2)CC1` [Example 52], the IC50 at HIV-integrase was 10 to 100 nM. For the same compound, in experiment [1], the EC50 fell in the range of 10 to 100 nM.

On to `Cc1ccc(S(=O)(=O)N2CCC3(CC2)OCCn2c3nc(C(=O)NC(C)c3ccc(F)cc3)c(O)c2=O)cc1` (stereo not drawn) [Example 13], for which the IC50 at HIV-integrase lay within 10 to 100 nM. Moreover, the EC50 in experiment [1] fell in the range of 10 to 100 nM.

As for `Cc1ccc(S(=O)(=O)N2CCC3(CC2)OCCn2c3nc(C(=O)NCc3ccc(F)cc3-n3ncnc3C)c(O)c2=O)cc1` [Example 16], the IC50 on HIV-integrase was in the range of 10 to 100 nM. The EC50 in experiment [1] lay in the range of 1 to 10 nM.

`O=C(NCc1ccc(F)cc1)c1nc2n(c(=O)c1O)CCOC21CCN(C(=O)OCc2ccccc2)CC1` [Example 22]: the IC50 at HIV-integrase was 1 to 10 nM. Moreover, the EC50 in experiment [1] lay within 1 to 10 nM.

As for `CCOC(=O)N1CCC2(CC1)OCCn1c2nc(C(=O)NCc2ccc(F)cc2)c(O)c1=O` [Example 31, Ethyl 2′-(4-fluorobenzylcarbamoyl)-3′-hydroxy-4′-oxo-6′,7′-dihydro-4′H-spiro[piperidine-4,9′-pyrimido[2,1-c][1,4]oxazine]-1-carboxylate], the IC50 at HIV-integrase was in the range of 1 to 10 nM. Also, the EC50 in experiment [1] was 1 to 10 nM.

Usually IC50 stands for the point on the concentration scale where inhibition reaches its midpoint.
